Experimental findings from US20150118179A1, “BIOCIDAL COMPOUNDS AND METHODS FOR USING SAME” (UNIVERSITY OF MANITOBA, priority 2012, published 2015) are described below.

Molecules are shown by their SMILES. Like-named read-outs stand apart in the source and are kept apart here.

One assay deals with P. aeruginosa (73104). The assay is described as follows: Antibacterial assessment in PBS suspension (Example 19). The following applies: inoculum 10^5 cfu/ml; for Bacteria Reduction log10 / Bacteria reduction %: [Cl+] 15 ppm. Type of assay: cell-based, Pseudomonas aeruginosa. How it is done: (§1) Pseudomonas aeruginosa (P. aeruginosa) (#73104, Gram-negative) and Staphylococcus aureus (MRSA) (#40065, Gram-positive) were used as the model microorganism to challenge the antibacterial function of the compounds. It should be noticed that both P. aeruginosa and MRSA are biosafety level 2 microorganisms and potentially biohazardous, therefore the following antibacterial assessments were carried out in a Biological Safety Level 2 cabinet and safety precautions were strictly followed.
(§2) Tryptone Soya agar plates were used as platforms for bacterial cell growth and were prepared following the instructions on the bottle (CM 0131, OXOID). The prepared agar was kept at 65° C. after being autoclaved and the resulting agar plates were stored in fridge at 3-4° C. All glassware and related materials were subjected to autoclave or disinfection with 70% ethanol prior to use.
(§3) Several colonies of each bacteria type were suspended in broth solutions (cation-supplemented Mueller-Hinton broth for P. aeruginosa and tryptic soy broth for MRSA) whose concentrations were equivalent to a 0.5 McFarland standard (1×10^8 cfu/ml). This suspension was then diluted 1:100 and 20 μL of the diluted suspension was further diluted in 60 ml of cation-supplemented Mueller-Hinton broth or tryptic soy broth. Then the prepared bacteria inoculums were incubated overnight at 37° C. to obtain logarithmic-phase cultures. For each microbial study, 0.2 ml (0.02 ml for P. aeruginosa) of the cell suspension was diluted in 19.8 mL (19.98 ml for P. aeruginosa) of phosphate-buffered Saline (PBS, 0.1 M Sodium phosphate monobasic, 0.1 M Sodium phosphate dibasic, pH 7.4) to give a cell concentration of 10^6-10^7 cfu/mL (10^5 cfu/ml for P. aeruginosa). 30 μL of each synthesized compound solution (0.28 N stock solution) were added into the cell suspension to achieve a [Cl^+] of 15 ppm and start timing instantly. The mixture was vortexed several times during the reaction. After contact for the desired time intervals, 1.0 ml cell suspension was withdrawn and added to 1.0 ml of 0.02 N sodium thiosulfate and/or Letheen (1% lecithin, 10% peptone and 0.5% tween 80 dissolved in PBS at pH 7.4) to quench the bactericidal effect. The quenched suspension was then serially diluted (10 times less concentrated than the previous one) and 100 μL of each dilution was placed onto agar plates. The same procedure was applied to the blanks as controls with the same matrices but with no synthesized compounds added. Bacterial colonies on the agar plates were enumerated after being incubated at 37° C. for 22 hours.
(§4) Percentage reduction of bacteria (%)=(A−B)/A×100
(§5) Where A is the number of bacterial colonies in the control (cfu/mL), and B is the number of bacteria colonies under the effect of the synthesized compounds.

The test system of assay [1] is methicillin resistant Staphylococcus aureus (MRSA 40065). Type of assay: cell-based. Conditions: inoculum 10^6 cfu/ml; for Bacteria Reduction log10 / Bacteria reduction %: [Cl+] 15 ppm. As for the experimental part:
as §1, §2, §3, §4, §5

Regarding `CCCCCCCCCCCC[N+](C)(C)CCCN1C(=O)NC(C)(C)C1=O` [Compound 7], the “Bacteria Reduction log10” value in the assay on P. aeruginosa (73104) (Table 10, contact 3 min) stood at 5.80 log10; in the assay on P. aeruginosa (73104) (Table 10, contact 10 min), 5.80 log10; in the assay with P. aeruginosa (73104) (Table 10, contact 20 min), 5.80 log10; with P. aeruginosa (73104) (Table 10, contact 30 min), 5.80 log10; with P. aeruginosa (73104) (Table 10, contact 60 min), 5.80 log10; in assay [1] (Table 10, contact 1 min), 0 log10. Further, the “Bacteria Reduction log10” value in assay [1] (Table 10, contact 3 min) turned out to be 0 log10; in assay [1] (Table 10, contact 5 min), 0.85 log10; in assay [1] (Table 10, contact 10 min) it was 2.59 log10; in assay [1] (Table 10, contact 60 min) it was 6.26 log10. Moreover, the “Bacteria reduction %” value in the assay with P. aeruginosa (73104) (Table 10, contact 3 min) is reported as 100%; with P. aeruginosa (73104) (Table 10, contact 10 min), 100%; with P. aeruginosa (73104) (Table 10, contact 20 min), 100%; with P. aeruginosa (73104) (Table 10, contact 30 min), 100%; in the assay on P. aeruginosa (73104) (Table 10, contact 60 min), 100%; in assay [1] (Table 10, contact 1 min), 0%. Further, the “Bacteria reduction %” value in assay [1] (Table 10, contact 3 min) is recorded as 0%; in assay [1] (Table 10, contact 5 min) it was 85.6. %; in assay [1] (Table 10, contact 10 min), 99.7%; in assay [1] (Table 10, contact 60 min), 100%.
In the case of `CC1(C)C(=O)N(CC[N+](C)(C)C)C(=O)N1Cl.[Cl-]` [Compound 10], the “Bacteria Reduction log10” value in the assay on P. aeruginosa (73104) (Table 10, contact 10 min) is recorded as 0.35 log10; with P. aeruginosa (73104) (Table 10, contact 20 min) it was 5.27 log10; in the assay on P. aeruginosa (73104) (Table 10, contact 30 min), 5.27 log10; in the assay with P. aeruginosa (73104) (Table 10, contact 60 min), 5.27 log10; in assay [1] (Table 10, contact 1 min), 0.74 log10; in assay [1] (Table 10, contact 3 min) it was 0.63 log10. Besides, the “Bacteria Reduction log10” value turned out to be 0.50 log10 in assay [1] (Table 10, contact 5 min); 0.81 log10 in assay [1] (Table 10, contact 10 min); 1.33 log10 in assay [1] (Table 10, contact 60 min). The “Bacteria reduction %” value came out at 55.1% in the assay with P. aeruginosa (73104) (Table 10, contact 10 min); 100% in the assay on P. aeruginosa (73104) (Table 10, contact 20 min); 100% in the assay on P. aeruginosa (73104) (Table 10, contact 30 min); 100% with P. aeruginosa (73104) (Table 10, contact 60 min); 81.7% in assay [1] (Table 10, contact 1 min); 76.7% in assay [1] (Table 10, contact 3 min). Besides, the “Bacteria reduction %” value in assay [1] (Table 10, contact 5 min) is on record as 68.2%; in assay [1] (Table 10, contact 10 min), 84.5%; in assay [1] (Table 10, contact 60 min), 95.3%.
As for `CCCCCCCCCCCC[N+](C)(C)CCCN1C(=O)N(Cl)C(C)(C)C1=O.[Cl-]` [Compound 8], the “Bacteria Reduction log10” value amounted to 5.80 log10 in the assay with P. aeruginosa (73104) (Table 10, contact 3 min); 5.80 log10 in the assay with P. aeruginosa (73104) (Table 10, contact 10 min); 5.80 log10 in the assay with P. aeruginosa (73104) (Table 10, contact 20 min); 5.80 log10 in the assay on P. aeruginosa (73104) (Table 10, contact 30 min); 5.80 log10 in the assay on P. aeruginosa (73104) (Table 10, contact 60 min); 0.13 log10 in assay [1] (Table 10, contact 1 min). In addition, the “Bacteria Reduction log10” value is reported as 6.26 log10 in assay [1] (Table 10, contact 3 min); 6.26 log10 in assay [1] (Table 10, contact 5 min); 6.26 log10 in assay [1] (Table 10, contact 10 min); 6.26 log10 in assay [1] (Table 10, contact 60 min). Further, the “Bacteria reduction %” value in the assay with P. aeruginosa (73104) (Table 10, contact 3 min) was 100%; in the assay with P. aeruginosa (73104) (Table 10, contact 10 min), 100%; with P. aeruginosa (73104) (Table 10, contact 20 min) it was 100%; in the assay with P. aeruginosa (73104) (Table 10, contact 30 min), 21.4%; with P. aeruginosa (73104) (Table 10, contact 60 min) it was 100%; in assay [1] (Table 10, contact 1 min), 26.1%. Besides, the “Bacteria reduction %” value in assay [1] (Table 10, contact 3 min) worked out at 100%; in assay [1] (Table 10, contact 5 min) it was 100%; in assay [1] (Table 10, contact 10 min), 100%; in assay [1] (Table 10, contact 60 min), 100%.
In the case of `CCCCCC[N+](C)(C)CCCN1C(=O)NC(C)(C)C1=O` [Compound 5], the “Bactericidal effect (bacteria reduction at various contact time)” value in the assay with P. aeruginosa (73104) (Table 10, contact 3-60 min) is on record as “No bactericidal effect”; in assay [1] (Table 10, contact 1-60 min) it was “No bactericidal effect”.
For the molecule `CCCCCC[N+](C)(C)CCCN1C(=O)N(Cl)C(C)(C)C1=O.[Cl-]` [Compound 6], the “Bacteria Reduction log10” value in the assay on P. aeruginosa (73104) (Table 10, contact 3 min) was found to be 0.24 log10; in the assay with P. aeruginosa (73104) (Table 10, contact 10 min) it was 0.30 log10; in the assay with P. aeruginosa (73104) (Table 10, contact 20 min), 0.50 log10; with P. aeruginosa (73104) (Table 10, contact 30 min) it was 1.52 log10; in the assay with P. aeruginosa (73104) (Table 10, contact 60 min), 5.80 log10; in assay [1] (Table 10, contact 1 min), 0.66 log10. In addition, the “Bacteria Reduction log10” value in assay [1] (Table 10, contact 3 min) was determined as 0.67 log10; in assay [1] (Table 10, contact 5 min), 0.76 log10; in assay [1] (Table 10, contact 10 min) it was 1.00 log10; in assay [1] (Table 10, contact 60 min), 2.11 log10. The “Bacteria reduction %” value in the assay with P. aeruginosa (73104) (Table 10, contact 3 min) is 42.7%; in the assay on P. aeruginosa (73104) (Table 10, contact 10 min) it was 49.3%; with P. aeruginosa (73104) (Table 10, contact 20 min) it was 68.6%; in the assay with P. aeruginosa (73104) (Table 10, contact 30 min), 97.0%; with P. aeruginosa (73104) (Table 10, contact 60 min) it was 100%; in assay [1] (Table 10, contact 1 min), 78.3%. Further, the “Bacteria reduction %” value in assay [1] (Table 10, contact 3 min) was 78.9%; in assay [1] (Table 10, contact 5 min) it was 82.8%; in assay [1] (Table 10, contact 10 min), 89.3%; in assay [1] (Table 10, contact 60 min) it was 99.2%.
